# Assay results published in US11926626B2, “Heterocyclic GLP-1 agonists” (Gasherbrum Bio, Inc., priority 2020, dated 2024).
# pEC50: −log10 of the molar value.
# Target: GLP-1 Receptor (Homo sapiens, UniProt P43220)
# Test: GLP-1R agonist cAMP stimulation assay (HEK293/GLP1R/CRE-Luc cells, HTRF cAMP)
# Type: cell-based
# Conditions: 30 min, 37° C.
# Protocol: Activation of GLP-1 receptor is known to stimulate cyclic AMP (cAMP) production in cells which indicates primary coupling to the Gαs subunit of the G protein heterotrimeric complex.
# To optimize functional activity directed toward Gαs coupling, a HEK293/CRE-Luc cell line developed by HDB stably expressing the GLP-1 Receptor was used. […] 1×10^5 cells/mL HEK293/GLP1R/CRE-LUC(HD Biosciences) cell suspensions prepared with assay buffer[DPBS containing 0.5 mM IBMX (Sigma, Cat #I5879) and 0.1% BSA (GENVIEW, Cat #FA016-100g)], 10 uL cell suspensions were added to each well of previous generated assay plate which already contains 50 nl compound at 200×concentration using ThermoFisher Multidrop Combi (1000 cells/well). Seal the plate and incubate at 37° C. with 5% CO2 for 30 min.
# After incubation the cAMP assay signal was generated using cAMP dynamic 2 Kit (Cisbio). 5 μL cAMP-d2 working solution was added to each well, followed with 5 μL Anti-cAMP antibody-cryptate working solution added to each well using ThermoFisher Multidrop Combi. Incubate at room temperature for 1 hour protected from light.
# GLP-1 Receptor, sequence (P43220 24-463): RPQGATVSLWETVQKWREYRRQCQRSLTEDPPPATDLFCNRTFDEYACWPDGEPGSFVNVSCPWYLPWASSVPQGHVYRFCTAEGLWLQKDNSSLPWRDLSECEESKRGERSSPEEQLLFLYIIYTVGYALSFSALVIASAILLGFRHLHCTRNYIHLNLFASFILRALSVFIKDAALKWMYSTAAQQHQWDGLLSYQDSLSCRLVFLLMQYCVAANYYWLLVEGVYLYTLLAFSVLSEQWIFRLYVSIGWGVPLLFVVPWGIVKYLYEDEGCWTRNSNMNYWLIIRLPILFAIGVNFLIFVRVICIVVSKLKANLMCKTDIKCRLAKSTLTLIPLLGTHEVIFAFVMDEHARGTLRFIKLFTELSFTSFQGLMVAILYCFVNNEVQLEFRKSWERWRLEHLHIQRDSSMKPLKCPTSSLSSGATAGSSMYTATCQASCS
row,SMILES,GLP1R cAMP Stimulation DR: pEC50
1,"O=C(O)c1ccc2nc(CN3CCC(c4cccc5nc(Cc6ccc(Cl)cc6F)oc45)CC3)n(C[C@@H]3CCO3)c2n1 [Compound 143a, (S)-2-((4-(2-(4-chloro-2-fluorobenzyl)benzo[d]oxazol-7-yl)piperidin-1-yl)methyl)-3-(oxetan-2-ylmethyl)-3H-imidazo[4,5-b]pyridine-5-carboxylic acid]",9.3

# Same assay, conditions: HEK293/CRE-Luc cells stably expressing GLP-1 Receptor; 30 min, 37° C.
row,GLP1R cAMP Stimulation DR: pEC50,SMILES
1,9.9,"O=C(O)c1ccc2nc(CN3CCC(Oc4ccnc(Cc5ccc(Cl)cc5F)n4)CC3)n(C[C@@H]3CCO3)c2c1 [Compound 160a, 2-{[4-({2-[(4-chloro-2-fluorophenyl)methyl]pyrimidin-4-yl}oxy)piperidin-1-yl]methyl}-1-{[(2S)-oxetan-2-yl]methyl}-1H-1,3-benzodiazole-6-carboxylic acid]"
2,10.2,"N#Cc1ccc(Cc2nccc(O[C@H]3CC[C@H](Cc4nc5ccc(C(=O)O)nc5n4C[C@@H]4CCO4)CC3)n2)cc1 [Compound 182a, 3-{[(2S)-oxetan-2-yl]methyl}-2-{[trans-4-({2-[(4-cyanophenyl)methyl]pyrimidin-4-yl}oxy)cyclohexyl]methyl}-3H-imidazo[4,5-b]pyridine-5-carboxylic acid]"
3,9.2,"O=C(O)c1ccc2nc(CN3CCC(Oc4cccc(Cc5ccc(C6CC6)cc5)n4)CC3)n(C[C@@H]3CCO3)c2n1 [Compound 146a, 2-{[4-({6-[(4-cyclopropylphenyl)methyl]pyridin-2-yl}oxy)piperidin-1-yl]methyl}-3-{[(2S)-oxetan-2-yl]methyl}-3H-imidazo[4,5-b]pyridine-5-carboxylic acid]"
4,7.3,"O=C(O)c1ccc2nc(CN3CCC(Oc4nc(Cc5ccc(Cl)cc5F)ccc4Cl)CC3)n(C[C@@H]3CCO3)c2n1 [Compound 137a, 2-{[4-({3-chloro-6-[(4-chloro-2-fluorophenyl)methyl]pyridin-2-yl}oxy)piperidin-1-yl]methyl}-3-{[(2S)-oxetan-2-yl]methyl}-3H-imidazo[4,5-b]pyridine-5-carboxylic acid]"
5,6.4,"O=C(O)c1ccc2nc(CN3CC4CC(Oc5ccnc(Cc6ccc(Cl)cc6)n5)CC4C3)n(C[C@@H]3CCO3)c2n1 (stereo partly drawn) [Compound 201a, 2-{[5-({2-[(4-chlorophenyl)methyl]pyrimidin-4-yl}oxy)-octahydrocyclopenta[c]pyrrol-2-yl]methyl}-3-{[(2S)-oxetan-2-yl]methyl}-3H-imidazo[4,5-b]pyridine-5-carboxylic acid]"
6,9.4,"N#Cc1ccc(Cc2cccc(OC3CCN(Cc4nc5ccc(C(=O)O)nc5n4C[C@@H]4CCO4)CC3)n2)c(F)c1 [Compound 136a, 2-{[4-({6-[(4-cyano-2-fluorophenyl)methyl]pyridin-2-yl}oxy)piperidin-1-yl]methyl}-3-{[(2S)-oxetan-2-yl]methyl}-3H-imidazo[4,5-b]pyridine-5-carboxylic acid]"
7,9.4,"O=C(O)c1ccc2nc(Cc3ccc(Oc4nc(Cc5ccc(Cl)cc5)ncc4F)cc3F)n(C[C@@H]3CCO3)c2n1 [Compound 190a, 2-{[4-({2-[(4-chlorophenyl)methyl]-5-fluoropyrimidin-4-yl}oxy)-2-fluorophenyl]methyl}-3-{[(2S)-oxetan-2-yl]methyl}-3H-imidazo[4,5-b]pyridine-5-carboxylic acid]"
8,10.3,"O=C(O)c1ccc2nc(C[C@H]3CC[C@H](Oc4nc(Cc5ccc(Cl)cc5)ncc4F)CC3)n(C[C@@H]3CCO3)c2n1 [Compound 188a, 3-{[(2S)-oxetan-2-yl]methyl}-2-{[trans-4-({2-[(4-chlorophenyl)methyl]-5-fluoropyrimidin-4-yl}oxy)cyclohexyl]methyl}-3H-imidazo[4,5-b]pyridine-5-carboxylic acid]"
9,10.1,"O=C(O)c1ccc2nc(C[C@H]3CC[C@H](Oc4cccc(Cc5ccc(Cl)cc5)n4)CC3)n(C[C@@H]3CCO3)c2n1 [Compound 181a, 3-{[(2S)-oxetan-2-yl]methyl}-2-{[trans-4-({6-[(4-chlorophenyl)methyl]pyridin-2-yl}oxy)cyclohexyl]methyl}-3H-imidazo[4,5-b]pyridine-5-carboxylic acid]"
10,9.9,"O=C(O)c1ccc2nc(C[C@H]3CC[C@H](Oc4cccc(Cc5ccc(Cl)cc5F)n4)CC3)n(C[C@@H]3CCO3)c2n1 [Compound 174b, 3-{[(2S)-oxetan-2-yl]methyl}-2-{[trans-4-({6-[(4-chloro-2-fluorophenyl)methyl]pyridin-2-yl}oxy)cyclohexyl]methyl}-3H-imidazo[4,5-b]pyridine-5-carboxylic acid]"
11,7.5,"O=C(O)c1ccc2nc(C[C@H]3CC[C@@H](Oc4cccc(Cc5ccc(Cl)cc5F)n4)CC3)n(C[C@@H]3CCO3)c2n1 [Compound 174a, 3-{[(2S)-oxetan-2-yl]methyl}-2-{[cis-4-({6-[(4-chloro-2-fluorophenyl)methyl]pyridin-2-yl}oxy)cyclohexyl]methyl}-3H-imidazo[4,5-b]pyridine-5-carboxylic acid]"
12,8.6,"COCCn1c(C[C@H]2CC[C@H](Oc3ccnc(Cc4ccc(Cl)cc4)n3)CC2)nc2ccc(C(=O)O)nc21 [Compound 179a, 3-(2-methoxyethyl)-2-{[trans-4-({2-[(4-chlorophenyl)methyl]pyrimidin-4-yl}oxy)cyclohexyl]methyl}-3H-imidazo[4,5-b]pyridine-5-carboxylic acid]"
13,10.1,"N#CC1(Cn2c(CN3CCC(Oc4ccnc(Cc5ccc(Cl)cc5F)n4)CC3)nc3ccc(C(=O)O)cc32)CC1 [Compound 162, 2-{[4-({2-[(4-chloro-2-fluorophenyl)methyl]pyrimidin-4-yl}oxy)piperidin-1-yl]methyl}-1-[(1-cyanocyclopropyl)methyl]-1H-1,3-benzodiazole-6-carboxylic acid]"
14,7.4,"O=C(O)c1ccc2nc(CN3CCC(Oc4cc(C(F)(F)F)cc(Cc5ccc(Cl)cc5)n4)CC3)n(C[C@@H]3CCO3)c2n1 [Compound 156a, 2-{[4-({6-[(4-chlorophenyl)methyl]-4-(trifluoromethyl)pyridin-2-yl}oxy)piperidin-1-yl]methyl}-3-{[(2S)-oxetan-2-yl]methyl}-3H-imidazo[4,5-b]pyridine-5-carboxylic acid]"
15,9.2,"O=c1[nH]c(-c2ccc3nc(CN4CCC(Oc5ccnc(Cc6ccc(Cl)cc6)n5)CC4)n(C[C@@H]4CCO4)c3n2)no1 [Compound 198a, (S)-3-(2-((4-((2-(4-chlorobenzyl)pyrimidin-4-yl)oxy)piperidin-1-yl)methyl)-3-(oxetan-2-ylmethyl)-3H-imidazo[4,5-b]pyridin-5-yl)-1,2,4-oxadiazol-5(4H)-one]"
16,8.9,"O=C(O)c1ccc2nc(CN3CCC(n4ccc5ccc(Cc6ccc(Cl)cc6F)nc54)CC3)n(C[C@@H]3CCO3)c2n1 [Compound 140a, 2-[(4-{6-[(4-chloro-2-fluorophenyl)methyl]-1H-pyrrolo[2,3-b]pyridin-1-yl}piperidin-1-yl)methyl]-3-{[(2S)-oxetan-2-yl]methyl}-3H-imidazo[4,5-b]pyridine-5-carboxylic acid]"
17,10.4,"O=C(O)c1ccc2nc(CN3CCC(Oc4ccnc(Cc5ccc(Cl)cc5F)n4)CC3)n(C[C@@H]3CCO3)c2n1 [Compound 113a, 2-{[4-({2-[(4-chloro-2-fluorophenyl)methyl]pyrimidin-4-yl}oxy)piperidin-1-yl]methyl}-3-{[(2S)-oxetan-2-yl]methyl}-3H-imidazo[4,5-b]pyridine-5-carboxylic acid]"
18,9.4,"O=C(O)c1ccc2nc(C[C@H]3CC[C@H](Oc4ccnc(Cc5ccc(Cl)cc5)n4)CC3)n(C[C@@H]3CCO3)c2c1 [Compound 176a, 1-{[(2S)-oxetan-2-yl]methyl}-2-{[trans-4-({2-[(4-chlorophenyl)methyl]pyrimidin-4-yl}oxy)cyclohexyl]methyl}-1H-1,3-benzodiazole-6-carboxylic acid]"
19,10.4,"O=C(O)c1ccc2nc(C[C@H]3CC[C@H](Oc4ccnc(Cc5ccc(Cl)cc5)n4)CC3)n(C[C@@H]3CCO3)c2n1 [Compound 177a, 3-{[(2S)-oxetan-2-yl]methyl}-2-{[trans-4-({2-[(4-chlorophenyl)methyl]pyrimidin-4-yl}oxy)cyclohexyl]methyl}-3H-imidazo[4,5-b]pyridine-5-carboxylic acid]"
20,8.6,"O=C(O)c1ccc2nc(CN3CCC(Oc4nc(Cc5ccc(Cl)cc5)ncc4F)CC3)n(C[C@H]3CCOC3)c2n1 [Compound 197a, (R)-2-((4-((2-(4-chlorobenzyl)-5-fluoropyrimidin-4-yl)oxy)piperidin-1-yl)methyl)-3-((tetrahydrofuran-3-yl)methyl)-3H-imidazo[4,5-b]pyridine-5-carboxylic acid]"

# Same assay, conditions: HEK293/CRE-Luc cells stably expressing GLP-1 Receptor; 30 min, 37° C.; read-out: GLP1R cAMP Stimulation DR: EC50
row,pEC50,SMILES
1,7.10,"Cc1ccc(OC2CCN(Cc3nc4ccc(C(=O)O)nc4n3CC3CCO3)CC2)nc1Cc1ccc(Cl)cc1F (stereo in doubt) [Compound 169a, 2-{[4-({6-[(4-chloro-2-fluorophenyl)methyl]-5-methylpyridin-2-yl}oxy)piperidin-1-yl]methyl}-3-{[(2S)-oxetan-2-yl]methyl}-3H-imidazo[4,5-b]pyridine-5-carboxylic acid]"
